Measured values taken from paper PMC7177633, “Effective Cellular Transport of Ortho-Halogenated Sulfonamide Derivatives of Metformin Is Related to Improved Antiproliferative Activity and Apoptosis Induction in MCF-7 Cells” (International Journal of Molecular Sciences, 2020).
Where two headings read alike, the source gives them in different places.

What was measured:
[1] = system: MCF-7 cells; assay: Cellular uptake of metformin sulfonamides in MCF-7 cells (HPLC); format: in vitro ADME, human; settings: for uptake into MCF-7 cells / uptake in MCF-7 cells relative to metformin: 800 μmol/L; for uptake into MCF-7 cells: 10 min incubation, 37 °C; for uptake in MCF-7 cells relative to metformin: fold higher than parent drug metformin
In short: (§1)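 MCF-7 or MDA-MB-231 cells exposed to 10−3000 μmol/L compound in HBSS at 37 °C for 10 min, washed with ice-cold HBSS, then lysed in 0.1 M NaOH. Intracellular compound quantified by reversed-phase HPLC-UV at 235 nm against standards spiked on cell layers. Protein by Bradford; quadruplicates.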

[2] = system: MDA-MB-231 cells; assay: Cellular uptake of metformin sulfonamides in MDA-MB-231 cells (HPLC); format: in vitro ADME, human; settings: for transport efficacy (Vmax/Km) in MCF-7 relative to MDA-MB-231: fold lower in MDA-MB-231 than in MCF-7
In short: as §1

[3] = system: MCF-7 cells; assay: Cell viability WST-1 assay, MCF-7; format: cell-based; settings: Homo sapiens, MCF7; WST-1, 24 h, mean ± SD (n = 6–8); read-out: IC50 inhibition of MCF-7 cells' viability
In short: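 Cells seeded 1 × 10^4/well, grown 24 h, then treated with compounds for 24 h at 37 °C. WST-1 reagent added for 1.5 h, absorbance at 450 nm, normalised to medium-only control (n = 8). IC50 from nonlinear log(concentration)-response fit.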

[4] = system: MCF-7 cells; assay: Annexin V-FITC/PI apoptosis assay, MCF-7; format: cell-based, human; settings: for Early Apoptotic [E+−] / Late Apoptotic [E++] / Living Cells [E−−] / Necrotic Cells [E−+] / Single Cells in Gate B: MCF-7, 24 h
Method: (§2) MCF-7 and MDA-MB-231 cells were seeded at a density of 5 × 10^4 per well on 24-well plates and incubated for 24 h (37 °C, 5% CO2) to obtain 70 % confluency. Then, the medium (control) or medium with the tested compounds in a volume of 250 μL was added and incubated for another 24 h. The cells were harvested using accutase (Sigma Aldrich, St. Louis, MO, USA) as a detaching reagent, collected to Eppendorf tubes and centrifuged (1100 rpm, 5 min). Afterwards, the cells were resuspended in 1 mL of a cold cell-staining buffer (Biolegend, London UK) and washed twice with a cell-staining buffer. The final step included suspension of the cell pellets in 100 μL of a binding buffer, staining with propidine iodide (PI; 10 μL) and FITC-annexin solutions (AV; 5 μL) (FITC Annexin V Apoptosis Detection Kit with PI (Biolegend, UK)). The samples were incubated for 20 min at room temperature in the dark, followed by an analysis conducted on a cytometer (CytoFlex, blue laser, 480 nm, Beckman-Coulter, Indianapolis, IN, USA). The results were analyzed using Kaluza 2.1 (Beckman-Coulter) software.
(§3) Annexin V (−) and PI (−) cells were considered living cells, annexin V (+) and PI (−) as early-apoptotic cells, annexin V (+) and PI (+) as late-apoptotic cells and annexin V (−) and PI (+) as necrotic cells.
(§4) The experiments were conducted in triplicates (n = 3). The coefficients of variation for the assay were determined (CV = 0.97–13.62%, depending on the calculated cell population).

[5] = system: MDA-MB-231 cells; assay: Annexin V-FITC/PI apoptosis assay, MDA-MB-231; format: cell-based, human; settings: for Early Apoptotic [E+−] / Late Apoptotic [E++] / Living Cells [E−−] / Necrotic Cells [E−+] / Single Cells in Gate B: MDA-MB-231, 24 h
Method: as §2, §3, §4

[6] = Eadie-Hofstee analysis, transporter I
[7] = Eadie-Hofstee analysis, transporter I, read-out: Km, transporter I, MCF-7
[8] = Eadie-Hofstee analysis, transporter II
[9] = Eadie-Hofstee analysis, transporter II, read-out: Km, transporter II, MCF-7
[10] = Michaelis-Menten curve, read-out: Km MCF-7 (Michaelis Menten curves)
[11] = Eadie-Hofstee analysis, transporter I, read-out: Km, transporter I, MDA-MB-231
[12] = Eadie-Hofstee analysis, transporter II, read-out: Km, transporter II, MDA-MB-231
[13] = IC50 (Comp. 1 13, Comp. 4 430, Comp. 7 55 μmol/L)
[14] = ½ × IC50 (Comp. 1 6.5, Comp. 4 215, Comp. 7 27.5 μmol/L)
[15] = Comp. 1 and 4 1500 μmol/L, Comp. 7 1300 μmol/L (½ × IC50)
[16] = Comp. 1 and 4 3000 μmol/L, Comp. 7 2600 (IC50)
[17] = MCF-7, 430 uM, representative cytogram Figure 7A
[18] = ½ × IC50 (Comp. 1 6.5, Comp. 4 215, Comp. 7 27.5 μmol/L), listed as Comp. 4
[19] = MDA-MB-231, 3000 uM, representative cytogram Figure 7B

SMILES: CN(C)C(=N)N=C(N)NS(=O)(=O)c1ccccc1F [Compound 7]
- uptake into MCF-7 cells [1]: 1.592 ± 0.943 nmol/min/mg protein
- Vmax, transporter I, MCF-7 [1, 6]: 5.303 ± 1.334 nmol/min/mg
- Km [1, 7]: 2.13 ± 0.815 mM
- Vmax, transporter II, MCF-7 [1, 8]: 22.43 ± 12.78 nmol/min/mg
- Km [1, 9]: 6.14 ± 4.6 mM
- Vmax MCF-7 (Michaelis Menten curves) ([1]; Michaelis-Menten curve): 23.92 ± 7.20 nmol/min/mg
- Km [1, 10]: 10.8 ± 5.13 mM
- uptake in MCF-7 cells relative to metformin [1]: approximately 14 fold
- Vmax, transporter I, MDA-MB-231 [2, 6]: 0.262 ± 0.035 nmol/min/mg
- Km [2, 11]: 1.53 ± 0.298 mM
- Vmax, transporter II, MDA-MB-231 [2, 8]: 0.443 ± 0.026 nmol/min/mg
- Km [2, 12]: 2.25 ± 0.19 mM
- transport efficacy (Vmax/Km) in MCF-7 relative to MDA-MB-231 [2]: 10 fold
- IC50 [3]: 55.1 ± 2.74 µM
- Early Apoptotic [E+−] [4, 13]: 24.35 ± 2.19 %
- Late Apoptotic [E++] [4, 13]: 43.24 ± 4.09 %
- Living Cells [E−−] [4, 13]: 31.88 ± 4.77 %
- Necrotic Cells [E−+] [4, 13]: 0.54 ± 0.01 %
- Single Cells in Gate B [4, 13]: 79.48 ± 0.82 %
- Early Apoptotic [E+−] [4, 14]: 23.59 ± 1.57 %
- Late Apoptotic [E++] [4, 14]: 35.98 ± 4.64 %
- Living Cells [E−−] [4, 14]: 39.85 ± 5.67 %
- Necrotic Cells [E−+] [4, 14]: 0.57 ± 0.03 %
- Single Cells in Gate B [4, 14]: 78.97 ± 0.51 %
- Early Apoptotic [E+−] [5, 15]: 8.78 ± 0.63 %
- Late Apoptotic [E++] [5, 15]: 18.89 ± 2.67 %
- Living Cells [E−−] [5, 15]: 68.26 ± 3.51 %
- Necrotic Cells [E−+] [5, 15]: 4.06 ± 1.75%
- Single Cells in Gate B [5, 15]: 93.75 ± 0.41%
- Early Apoptotic [E+−] [5, 16]: 6.39 ± 0.16 %
- Late Apoptotic [E++] [5, 16]: 35.54 ± 2.67 %
- Living Cells [E−−] [5, 16]: 50.40 ± 4.95 %
- Necrotic Cells [E−+] [5, 16]: 7.66 ± 2.93 %
- Single Cells in Gate B [5, 16]: 91.60 ± 0.48 %

SMILES: CN(C)C(=N)N=C(N)NS(=O)(=O)c1ccccc1Br [Compound 4]
- Vmax, transporter I, MCF-7 [1, 6]: 0.031 ± 0.002 nmol/min/mg
- Km [1, 7]: 1.54 ± 0.22 mM
- Vmax, transporter II, MCF-7 [1, 8]: 0.153 ± 0.022 nmol/min/mg
- Km [1, 9]: 8.37 ± 1.43 mM
- Vmax MCF-7 (Michaelis Menten curves) ([1]; Michaelis-Menten curve): 0.049 ± 0.02 nmol/min/mg
- Km [1, 10]: 2.47 ± 0.652 mM
- uptake into MDA-MB-231 cells ([2]; 800 μmol/L, 10 min incubation, 37 °C): 1.3 ± 0.21 nmol/min/mg protein
- Vmax, transporter I, MDA-MB-231 [2, 6]: 10.27 ± 1.18 nmol/min/mg
- Km [2, 11]: 5.52 ± 0.748 mM
- Vmax, transporter II, MDA-MB-231 [2, 8]: 21.44 ± 4.03 nmol/min/mg
- Km [2, 12]: 11.6 ± 2.44 mM
- uptake in MDA-MB-231 relative to MCF-7 ([2]; fold more efficient in MDA-MB-231 than in MCF-7): approximately 130 fold
- IC50 [3]: 430 ± 119 µM
- Early apoptosis (representative cytogram) [4, 17]: 24.99%
- Late apoptosis (representative cytogram) [4, 17]: 59.54%
- Live cells (representative cytogram) [4, 17]: 15.26%
- Necrotic cells (representative cytogram) [4, 17]: 0.21%
- Early Apoptotic [E+−] [4, 13]: 22.71 ± 2.11 %
- Late Apoptotic [E++] [4, 13]: 60.16 ± 2.21%
- Living Cells [E−−] [4, 13]: 16.84 ± 1.93 %
- Necrotic Cells [E−+] [4, 13]: 0.29 ± 0.09 %
- Single Cells in Gate B [4, 13]: 83.19 ± 0.40 %
- Late Apoptotic [E++] ([4]; IC50 (Comp. 1 13, Comp. 4 430, Comp. 7 55 μmol/L), listed as Comp. 4): 60.16 ± 2.21 %
- Early Apoptotic [E+−] [4, 14]: 30.69 ± 3.01%
- Late Apoptotic [E++] [4, 14]: 34.69 ± 1.51%
- Living Cells [E−−] [4, 14]: 34.17 ± 3.88%
- Necrotic Cells [E−+] [4, 14]: 0.45 ± 0.15 %
- Single Cells in Gate B [4, 14]: 78.90 ± 0.11 %
- Early Apoptotic [E+−] [4, 18]: 30.69 ± 3.01 %
- Late Apoptotic [E++] [4, 18]: 34.69 ± 1.51 %
- Living Cells [E−−] [4, 18]: 34.17 ± 3.88 %
- Early apoptosis (representative cytogram) [5, 19]: 6.91%
- Late apoptosis (representative cytogram) [5, 19]: 34.48%
- Live cells (representative cytogram) [5, 19]: 51.21%
- Necrotic cells (representative cytogram) [5, 19]: 7.40%
- Early Apoptotic [E+−] [5, 15]: 7.74 ± 0.91 %
- Late Apoptotic [E++] [5, 15]: 13.30 ± 0.66 %
- Living Cells [E−−] [5, 15]: 72.64 ± 1.76 %
- Necrotic Cells [E−+] [5, 15]: 6.31 ± 0.26 %
- Single Cells in Gate B [5, 15]: 93.37 ± 0.34%
- Early Apoptotic [E+−] [5, 16]: 6.85 ± 0.34 %
- Late Apoptotic [E++] [5, 16]: 36.51 ± 3.36 %
- Living Cells [E−−] [5, 16]: 49.49 ± 2.31 %
- Necrotic Cells [E−+] [5, 16]: 7.15 ± 1.45 %
- Single Cells in Gate B [5, 16]: 90.59 ± 0.70 %

SMILES: CN(C)C(=N)N=C(N)NS(=O)(=O)c1ccccc1Cl [Compound 1]
- uptake into MCF-7 cells [1]: 1.79 ± 0.79 nmol/min/mg protein
- Vmax, transporter I, MCF-7 [1, 6]: 18.53 ± 2.41 nmol/min/mg
- Km [1, 7]: 6.72 ± 0.982 mM
- Vmax, transporter II, MCF-7 [1, 8]: 62.84 ± 21.37 nmol/min/mg
- Km [1, 9]: 21.1 ± 7.73 mM
- uptake in MCF-7 cells relative to metformin [1]: approximately 14 fold
- Vmax, transporter I, MDA-MB-231 [2, 6]: 0.0182 ± 0.0026 nmol/min/mg
- Km [2, 11]: 3.07 ± 0.562 mM
- Vmax, transporter II, MDA-MB-231 [2, 8]: 0.0261 ± 0.0040 nmol/min/mg
- Km [2, 12]: 3.3 ± 0.625 mM
- Vmax MDA-231 cells (Michaelis Menten curves) ([2]; Michaelis-Menten curve): 0.047 ± 0.065 nmol/min/mg
- Km ([2]; Michaelis-Menten curve, read-out: Km MDA-231 cells (Michaelis Menten curves)): 8.3 ± 3.27 mM
- transport efficacy (Vmax/Km) in MCF-7 relative to MDA-MB-231 [2]: over 370 fold
- IC50 [3]: 12.6 ± 1.2 µM
- Early Apoptotic [E+−] [4, 13]: 35.79 ± 3.78 %
- Late Apoptotic [E++] [4, 13]: 33.84 ± 3.17 %
- Living Cells [E−−] [4, 13]: 29.96 ± 6.41 %
- Necrotic Cells [E−+] [4, 13]: 0.41 ± 0.02 %
- Single Cells in Gate B [4, 13]: 82.66 ± 0.68 %
- Early Apoptotic [E+−] [4, 14]: 27.59 ± 1.03 %
- Late Apoptotic [E++] [4, 14]: 38.93 ± 3.46 %
- Living Cells [E−−] [4, 14]: 32.82 ± 4.50 %
- Necrotic Cells [E−+] [4, 14]: 0.67 ± 0.08%
- Single Cells in Gate B [4, 14]: 77.51 ± 0.92 %
- Early Apoptotic [E+−] [5, 15]: 7.66 ± 0.06 %
- Late Apoptotic [E++] [5, 15]: 8.06 ± 0.81 %
- Living Cells [E−−] [5, 15]: 81.55 ± 1.65%
- Necrotic Cells [E−+] [5, 15]: 2.74 ± 0.98%
- Single Cells in Gate B [5, 15]: 94.34 ± 0.26%
- Living Cells [E−−] ([5]; Comp. 1 and 4 1500 μmol/L, Comp. 7 1300 μmol/L (½ × IC50), listed as Comp. 1): 81.55 ± 1.65 %
- Early Apoptotic [E+−] [5, 16]: 9.96 ± 0.92 %
- Late Apoptotic [E++] [5, 16]: 31.41 ± 3.46 %
- Living Cells [E−−] [5, 16]: 53.83%
- Necrotic Cells [E−+] [5, 16]: 4.81 ± 0.60%
- Single Cells in Gate B [5, 16]: 91.85 ± 0.37 %
- Living Cells [E−−] ([5]; Comp. 1 and 4 3000 μmol/L, Comp. 7 2600 (IC50), listed as Comp. 1): 53.83 ± 3.87 %
